Several values for one entry are separate records, joined by “and”; a condition that tells them apart may be missing. Equal entries are not always repeated. Toxic doses and inconclusive results are not listed.
System: L1210 leukemia ip in BDF1 mice, survival T/C
Assay: NCI In Vivo Anticancer Drug Screen. Data for tumor model L1210 Leukemia (intraperitoneal) in B6D2F1 (BDF1) mice
Conditions: endpoint: mean survival time, higher = longer survival
In short: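 Antitumor effect is assessed in tumor-bearing animals. Survival in the compound arm is compared with a vehicle-dosed control arm and expressed as their quotient.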

[1] = dose: 100.0 mg/kg/injection, schedule: Q01DX001 (ip), vehicle: carboxymethylcellulose (CMC)
[2] = dose: 200.0 mg/kg/injection, schedule: Q01DX001 (ip), vehicle: carboxymethylcellulose (CMC)
[3] = dose: 100.0 mg/kg/injection, schedule: Q01DX001 (ip), vehicle: saline with Tween-80
[4] = dose: 200.0 mg/kg/injection, schedule: Q01DX001 (ip), vehicle: saline with Tween-80
[5] = dose: 200.0 mg/kg/injection, schedule: Q01DX001 (ip), vehicle: saline
[6] = dose: 400.0 mg/kg/injection, schedule: Q01DX001 (ip), vehicle: saline with Tween-80
[7] = dose: 400.0 mg/kg/injection, schedule: Q01DX001 (ip), vehicle: saline
[8] = dose: 100.0 mg/kg/injection, schedule: Q01DX009 (ip), vehicle: Klucel (hydroxypropylcellulose) (HPC)
[9] = dose: 200.0 mg/kg/injection, schedule: Q01DX009 (ip), vehicle: Klucel (hydroxypropylcellulose) (HPC)
[10] = dose: 400.0 mg/kg/injection, schedule: Q01DX009 (ip), vehicle: Klucel (hydroxypropylcellulose) (HPC)
[11] = dose: 400.0 mg/kg/injection, schedule: Q01DX001 (ip), vehicle: carboxymethylcellulose (CMC)
[12] = dose: 100.0 mg/kg/injection, schedule: Q01DX001 (ip), vehicle: saline
[13] = dose: 100.0 mg/kg/injection, schedule: Q01DX009 (ip), vehicle: saline with Tween-80
[14] = dose: 100.0 mg/kg/injection, schedule: Q04DX003 (ip), vehicle: saline with Tween-80
[15] = dose: 200.0 mg/kg/injection, schedule: Q01DX009 (ip), vehicle: saline with Tween-80
[16] = dose: 200.0 mg/kg/injection, schedule: Q04DX003 (ip), vehicle: saline with Tween-80
[17] = dose: 400.0 mg/kg/injection, schedule: Q01DX009 (ip), vehicle: saline with Tween-80
[18] = dose: 400.0 mg/kg/injection, schedule: Q04DX003 (ip), vehicle: saline with Tween-80

## Nc1c(Oc2cccc(C[N+]3(CCOS(=O)(=O)O)CC3)c2)cc(O)c2c1C(=O)c1ccccc1C2=O
[1]
  T/C: 96 % of control
[2]
  T/C: 93 % of control

## Cc1cc(C)c2c(C#N)cn(-c3ccc([N+](=O)[O-])cc3)c2n1
[3]
  T/C: 98 % of control
[4]
  T/C: 109 % of control
[5]
  T/C: 102 % of control
[6]
  T/C: 95 % of control
[7]
  T/C: 94 % of control

## CC12CC3CC(C1)CC(NCCO)(C3)C2
dose: 10.0 mg/kg/injection, schedule: Q04DX002 (ip), vehicle: Klucel (hydroxypropylcellulose) (HPC)
  T/C: 87 % of control
dose: 20.0 mg/kg/injection, schedule: Q04DX002 (ip), vehicle: Klucel (hydroxypropylcellulose) (HPC)
  T/C: 91 % of control
dose: 40.0 mg/kg/injection, schedule: Q04DX002 (ip), vehicle: Klucel (hydroxypropylcellulose) (HPC)
  T/C: 91 % of control

## CC(C)(C)NC(=O)Oc1ccccc1C(N)=O
[8]
  T/C: 95 % of control
[9]
  T/C: 95 % of control
[10]
  T/C: 94 % of control

## S=c1nc[nH]c2[nH]ncc12
[1]
  T/C: 108 % of control
[2]
  T/C: 93 % of control
[11]
  T/C: 93 % of control

## Nc1nc(F)nc2c1ncn2C1OC(CO)C(O)C1O (centres undefined)
dose: 0.75 mg/kg/injection, schedule: Q01DX Z (ip), vehicle: saline
  T/C: 106 % of control
dose: 1.0 mg/kg/injection, schedule: Q01DX015 (ip), vehicle: saline
  T/C: 104 % of control
dose: 1.5 mg/kg/injection, schedule: Q01DX Z (ip), vehicle: saline
  T/C: 112 % of control
dose: 1.6 mg/kg/injection, schedule: Q01DX015 (ip), vehicle: saline
  T/C: 98 % of control
dose: 2.4 mg/kg/injection, schedule: Q01DX015 (ip), vehicle: saline
  T/C: 96 % of control
dose: 3.0 mg/kg/injection, schedule: Q01DX Z (ip), vehicle: saline
  T/C: 104 % of control
dose: 3.6 mg/kg/injection, schedule: Q01DX015 (ip), vehicle: saline
  T/C: 96 % of control
dose: 5.4 mg/kg/injection, schedule: Q01DX015 (ip), vehicle: saline
  T/C: 87 % of control
dose: 6.0 mg/kg/injection, schedule: Q01DX Z (ip), vehicle: saline
  T/C: 113 % of control
dose: 65.0 mg/kg/injection, schedule: Q03HX024 (ip), vehicle: saline with Tween-80
  T/C: 205 % of control
dose: 65.0 mg/kg/injection, schedule: Q06HX012 (ip), vehicle: saline with Tween-80
  T/C: 160 % of control
dose: 80.0 mg/kg/injection, schedule: Q03HX024 (ip), vehicle: saline with Tween-80
  T/C: 291 % of control
dose: 80.0 mg/kg/injection, schedule: Q06HX012 (ip), vehicle: saline with Tween-80
  T/C: 177 % of control
dose: 90.0 mg/kg/injection, schedule: Q03HX024 (ip), vehicle: saline with Tween-80
  T/C: 276 % of control
[12]
  T/C: 105 % of control
dose: 100.0 mg/kg/injection, schedule: Q03HX024 (ip), vehicle: saline with Tween-80
  T/C: 301 % of control and 357 % of control (2×)
dose: 100.0 mg/kg/injection, schedule: Q03HX024 (oral), vehicle: saline with Tween-80
  T/C: 160 % of control
dose: 110.0 mg/kg/injection, schedule: Q03HX024 (ip), vehicle: saline with Tween-80
  T/C: 157 % of control
dose: 125.0 mg/kg/injection, schedule: Q03HX024 (ip), vehicle: saline with Tween-80
  T/C: 100 % of control
dose: 125.0 mg/kg/injection, schedule: Q06HX012 (ip), vehicle: saline with Tween-80
  T/C: 163 % of control
dose: 150.0 mg/kg/injection, schedule: Q03HX024 (ip), vehicle: saline with Tween-80
  T/C: 83 % of control
dose: 150.0 mg/kg/injection, schedule: Q03HX024 (oral), vehicle: saline with Tween-80
  T/C: 166 % of control
dose: 150.0 mg/kg/injection, schedule: Q06HX012 (ip), vehicle: saline with Tween-80
  T/C: 181 % of control and 326 % of control
[5]
  T/C: 107 % of control
dose: 200.0 mg/kg/injection, schedule: Q06HX012 (ip), vehicle: saline with Tween-80
  T/C: 219 % of control
dose: 250.0 mg/kg/injection, schedule: Q06HX012 (ip), vehicle: saline with Tween-80
  T/C: 122 % of control
dose: 300.0 mg/kg/injection, schedule: Q01DX009 (ip), vehicle: saline with Tween-80
  T/C: 86 % of control
dose: 300.0 mg/kg/injection, schedule: Q12HX006 (ip), vehicle: saline with Tween-80
  T/C: 204 % of control and 225 % of control
dose: 350.0 mg/kg/injection, schedule: Q12HX006 (ip), vehicle: saline with Tween-80
  T/C: 205 % of control
[7]
  T/C: 122 % of control
dose: 400.0 mg/kg/injection, schedule: Q12HX006 (ip), vehicle: saline with Tween-80
  T/C: 207 % of control and 288 % of control
dose: 450.0 mg/kg/injection, schedule: Q12HX006 (ip), vehicle: saline with Tween-80
  T/C: 228 % of control
dose: 600.0 mg/kg/injection, schedule: Q04DX003 (ip), vehicle: saline with Tween-80
  T/C: 186 % of control
dose: 750.0 mg/kg/injection, schedule: Q12HX006 (ip), vehicle: saline with Tween-80
  T/C: 106 % of control
dose: 800.0 mg/kg/injection, schedule: Q04DX003 (ip), vehicle: saline with Tween-80
  T/C: 200 % of control
dose: 1000.0 mg/kg/injection, schedule: Q04DX003 (ip), vehicle: saline with Tween-80
  T/C: 205 % of control

## O=C(Nc1ccc(Cl)cc1[N+](=O)[O-])OCC1CC2C=CC1C2 (centres undefined)
[3]
  T/C: 94 % of control and 87 % of control
[13]
  T/C: 94 % of control and 98 % of control
dose: 100.0 mg/kg/injection, schedule: Q04DX002 (ip), vehicle: saline with Tween-80
  T/C: 96 % of control and 97 % of control
[14]
  T/C: 94 % of control and 98 % of control
[4]
  T/C: 93 % of control and 102 % of control
[15]
  T/C: 100 % of control
dose: 200.0 mg/kg/injection, schedule: Q04DX002 (ip), vehicle: saline with Tween-80
  T/C: 97 % of control and 100 % of control
[16]
  T/C: 98 % of control and 101 % of control
[6]
  T/C: 97 % of control and 101 % of control
[17]
  T/C: 100 % of control
dose: 400.0 mg/kg/injection, schedule: Q04DX002 (ip), vehicle: saline with Tween-80
  T/C: 93 % of control and 87 % of control
[18]
  T/C: 100 % of control and 91 % of control

## CCC(=O)Nc1ccc(Cl)cc1
[8]
  T/C: 87 % of control
dose: 100.0 mg/kg/injection, schedule: Q04DX003 (ip), vehicle: Klucel (hydroxypropylcellulose) (HPC)
  T/C: 95 % of control
[9]
  T/C: 93 % of control
dose: 200.0 mg/kg/injection, schedule: Q04DX003 (ip), vehicle: Klucel (hydroxypropylcellulose) (HPC)
  T/C: 95 % of control
[10]
  T/C: 104 % of control
dose: 400.0 mg/kg/injection, schedule: Q04DX003 (ip), vehicle: Klucel (hydroxypropylcellulose) (HPC)
  T/C: 95 % of control

## CC(=O)Nc1ccc(NC(C)=O)cc1
[14]
  T/C: 95 % of control
[16]
  T/C: 91 % of control
[18]
  T/C: 95 % of control

## CC(CO)CCCC(C)C1CCC2C3CCC4CC(O)CCC4(C)C3CCC12C (centres undefined)
[3]
  T/C: 95 % of control
[4]
  T/C: 87 % of control
[6]
  T/C: 90 % of control

## Nc1nccnc1Cl
dose: 75.0 mg/kg/injection, schedule: Q01DX001 (ip), vehicle: acetone
  T/C: 104 % of control
dose: 150.0 mg/kg/injection, schedule: Q01DX001 (ip), vehicle: acetone
  T/C: 104 % of control
dose: 300.0 mg/kg/injection, schedule: Q01DX001 (ip), vehicle: acetone
  T/C: 96 % of control

## CCN(CC)CCCC(C)Nc1cc(N)c2ncc(-c3ccc(Cl)cc3)nc2n1 (centres undefined)
dose: 75.0 mg/kg/injection, schedule: Q01DX001 (ip), vehicle: saline
  T/C: 96 % of control
dose: 150.0 mg/kg/injection, schedule: Q01DX001 (ip), vehicle: saline
  T/C: 102 % of control

## CCC1(C)CCC2C(=CCC3C(C)(C(=O)O)CCCC23C)C1 (centres undefined)
[13]
  T/C: 91 % of control
[15]
  T/C: 93 % of control
[17]
  T/C: 86 % of control

## N#C/C=C/C1CCCCC1
dose: 25.0 mg/kg/injection, schedule: Q04DX003 (ip), vehicle: saline
  T/C: 109 % of control
dose: 50.0 mg/kg/injection, schedule: Q04DX003 (ip), vehicle: saline
  T/C: 107 % of control
[12]
  T/C: 95 % of control
dose: 100.0 mg/kg/injection, schedule: Q04DX003 (ip), vehicle: saline
  T/C: 105 % of control

## O=C(NNc1ccccc1OCc1ccccc1)C(F)(F)F
[3]
  T/C: 100 % of control
[4]
  T/C: 103 % of control
[6]
  T/C: 95 % of control

## N=C1SCC(=O)N1CCN1C(=N)SCC1=O
[1]
  T/C: 101 % of control
[2]
  T/C: 90 % of control
[11]
  T/C: 97 % of control

Reference: PubChem BioAssay AID248 (DTP/NCI, 2004)
